# In patent publication US12527779B2, “Prostaglandin E2 (PGE2) EP4 receptor antagonists” (Domain Therapeutics, priority 2019, dated 2026):
# Several values for one entry are separate records, joined by “and”; a condition that tells them apart may be missing. Identical values can stand only once.
# Tests used:
# [1] = target: T1, human EP4 (hEP4) receptor (Homo sapiens, UniProt P35408); assay: In vitro human EP4 functional antagonist activity using BRET biosensors (cAMP EPAC biosensor, TCS2510 stimulation); format: cell-based; settings: antagonist activity vs EC60 TCS2510, hEP4 in HEK-293 T cells
# T1 construct: expressed in transfected cells; host or cells: HEK-293 T cells, transient co-transfection with polyethylenimine
# Method in brief: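 HEK-293T cells transiently co-transfected with hEP4 and EPAC cAMP BRET biosensor (luciferase/GFP), assayed 48 h later in HEPES-buffered saline after 1 h at 22 °C. After 5 min with compound, cells stimulated with EC60 TCS2510 and BRET read for 10 min; IC50 from 10-point, 4.5-log variable-slope fits, duplicate, two experiments.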
# MCA205 tumor cells = assay: In vivo anti-tumoral activity of Example 166 in a MCA205 tumor model; parameters: species or system C57BL/6 mice
# Protocol: Sarcoma MCA205 tumor cell line was cultured in vitro in DMEM supplemented with 10% FBS, 1% Penicillin-Streptomycin, 1 mM HEPES. Before inoculation in mice, cell viability was assessed by flow cytometry analysis and viable cell gating. A cell suspension was prepared according to the viable cell count.
# Female C57BL/6 mice were inoculated subcutaneously in the right flank region with MCA205 tumor cells (0.5×10^6) in 0.1 ml of PBS for tumor development on day 1. Tumor volumes were measured thrice per week in two dimensions using a caliper, and the volume was expressed in mm^3 using the formula: “V=(L×W×W)/2”, where V is tumor volume, L is tumor length (the longest tumor dimension) and W is tumor width (the longest tumor dimension perpendicular to L). When the mean tumor size reached approximately 80 mm^3, mice were randomly allocated into groups (10 mice per group) and treated with or without an anti-PD-1 antibody (RPM1-14, 5 mg/kg, ip, on days 1, 4, 7, 10), with or without the compound of Example 166 (30 or 100 mg/kg, po, QD, 5% DMSO/95% (10% w/v solution of HP-3-CD in water) v/v) for 23 days).
# Animals were checked daily for morbidity and mortality. During routine monitoring, the animals were checked for any effects on tumor growth and treatments on behavior such as mobility, food and water consumption, body weight gain/loss (body weights were measured thrice per week), eye/hair matting and any other abnormalities.
# T1 sequence (P35408 whole entry): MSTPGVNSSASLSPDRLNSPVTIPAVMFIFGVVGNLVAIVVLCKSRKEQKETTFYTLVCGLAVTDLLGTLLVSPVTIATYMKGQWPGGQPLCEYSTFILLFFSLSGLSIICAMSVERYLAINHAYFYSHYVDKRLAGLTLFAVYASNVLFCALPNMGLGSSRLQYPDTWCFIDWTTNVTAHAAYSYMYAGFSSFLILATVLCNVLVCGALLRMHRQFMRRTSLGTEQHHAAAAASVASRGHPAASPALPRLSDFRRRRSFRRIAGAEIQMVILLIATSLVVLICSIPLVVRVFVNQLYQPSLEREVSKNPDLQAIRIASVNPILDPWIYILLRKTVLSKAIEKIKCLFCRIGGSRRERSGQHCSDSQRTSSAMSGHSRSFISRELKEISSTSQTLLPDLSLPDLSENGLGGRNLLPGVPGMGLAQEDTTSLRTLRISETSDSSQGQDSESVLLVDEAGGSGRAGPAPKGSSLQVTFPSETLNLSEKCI
structure (smiles),measurement,setting,value
"C[C@H](NC(=O)C1(N2CC[C@@H](Oc3cccc(C(F)(F)F)c3)C2)CC1)c1ccc(C(=O)O)cc1.Cl [Example 166, 4-[(1S)-1-[[1-[(3R)-3-[3-(Trifluoromethyl)phenoxy]pyrrolidin-1-yl]cyclopropane-1-carbonyl]amino]ethyl]benzoic acid, hydrochloride]",IC50,[1],< 100 nM
same,Tumor Growth Inhibition TGI (%),"MCA205 tumor cells; Example 166 30 mg/kg po QD + anti-PD1 antibody 5 mg/kg ip, day 1",0.1%
same,Tumor Growth Inhibition TGI (%),"MCA205 tumor cells; Example 166 30 mg/kg po QD + anti-PD1 antibody 5 mg/kg ip, day 3",8.3%
same,Tumor Growth Inhibition TGI (%),"MCA205 tumor cells; Example 166 30 mg/kg po QD + anti-PD1 antibody 5 mg/kg ip, day 6",30.6%
same,Tumor Growth Inhibition TGI (%),"MCA205 tumor cells; Example 166 30 mg/kg po QD + anti-PD1 antibody 5 mg/kg ip, day 8",47.4%
same,Tumor Growth Inhibition TGI (%),"MCA205 tumor cells; Example 166 30 mg/kg po QD + anti-PD1 antibody 5 mg/kg ip, day 10",58.6%
same,Tumor Growth Inhibition TGI (%),"MCA205 tumor cells; Example 166 30 mg/kg po QD + anti-PD1 antibody 5 mg/kg ip, day 13",55.7%
same,Tumor Growth Inhibition TGI (%),"MCA205 tumor cells; Example 166 30 mg/kg po QD + anti-PD1 antibody 5 mg/kg ip, day 15",49.3%
same,Tumor Growth Inhibition TGI (%),"MCA205 tumor cells; Example 166 30 mg/kg po QD + anti-PD1 antibody 5 mg/kg ip, day 17",52.2%
same,Tumor Growth Inhibition TGI (%),"MCA205 tumor cells; Example 166 30 mg/kg po QD, day 1",−6.1%
same,Tumor Growth Inhibition TGI (%),"MCA205 tumor cells; Example 166 30 mg/kg po QD, day 3",−6.3%
same,Tumor Growth Inhibition TGI (%),"MCA205 tumor cells; Example 166 30 mg/kg po QD, day 6",−22.4%
same,Tumor Growth Inhibition TGI (%),"MCA205 tumor cells; Example 166 30 mg/kg po QD, day 8",9.8%
same,Tumor Growth Inhibition TGI (%),"MCA205 tumor cells; Example 166 30 mg/kg po QD, day 10",10.2%
same,Tumor Growth Inhibition TGI (%),"MCA205 tumor cells; Example 166 30 mg/kg po QD, day 13",6.4%
same,Tumor Growth Inhibition TGI (%),"MCA205 tumor cells; Example 166 30 mg/kg po QD, day 15",4.3%
same,Tumor Growth Inhibition TGI (%),"MCA205 tumor cells; Example 166 30 mg/kg po QD, day 17",10.8%
same,Tumor Growth Inhibition TGI (%),"MCA205 tumor cells; Example 166 100 mg/kg po QD + anti-PD1 antibody 5 mg/kg ip, day 1",1.4%
same,Tumor Growth Inhibition TGI (%),"MCA205 tumor cells; Example 166 100 mg/kg po QD + anti-PD1 antibody 5 mg/kg ip, day 3",12.2%
same,Tumor Growth Inhibition TGI (%),"MCA205 tumor cells; Example 166 100 mg/kg po QD + anti-PD1 antibody 5 mg/kg ip, day 6",34.3%
same,Tumor Growth Inhibition TGI (%),"MCA205 tumor cells; Example 166 100 mg/kg po QD + anti-PD1 antibody 5 mg/kg ip, day 8",50.2%
same,Tumor Growth Inhibition TGI (%),"MCA205 tumor cells; Example 166 100 mg/kg po QD + anti-PD1 antibody 5 mg/kg ip, day 10",66.6%
same,Tumor Growth Inhibition TGI (%),"MCA205 tumor cells; Example 166 100 mg/kg po QD + anti-PD1 antibody 5 mg/kg ip, day 13",70.4%
same,Tumor Growth Inhibition TGI (%),"MCA205 tumor cells; Example 166 100 mg/kg po QD + anti-PD1 antibody 5 mg/kg ip, day 15",67.3%
same,Tumor Growth Inhibition TGI (%),"MCA205 tumor cells; Example 166 100 mg/kg po QD + anti-PD1 antibody 5 mg/kg ip, day 17, hydrochloride",68.0% and 68.1%
same,Tumor Growth Inhibition TGI (%),"MCA205 tumor cells; Example 166 100 mg/kg po QD, day 1",−0.7%
same,Tumor Growth Inhibition TGI (%),"MCA205 tumor cells; Example 166 100 mg/kg po QD, day 3",13.2%
same,Tumor Growth Inhibition TGI (%),"MCA205 tumor cells; Example 166 100 mg/kg po QD, day 6",12.1%
same,Tumor Growth Inhibition TGI (%),"MCA205 tumor cells; Example 166 100 mg/kg po QD, day 8",16.7%
same,Tumor Growth Inhibition TGI (%),"MCA205 tumor cells; Example 166 100 mg/kg po QD, day 10",25.7%
same,Tumor Growth Inhibition TGI (%),"MCA205 tumor cells; Example 166 100 mg/kg po QD, day 13",32.6%
same,Tumor Growth Inhibition TGI (%),"MCA205 tumor cells; Example 166 100 mg/kg po QD, day 15",23.6%
same,Tumor Growth Inhibition TGI (%),"MCA205 tumor cells; Example 166 100 mg/kg po QD, day 17, hydrochloride, 100 mg/kg",31.0%
